Data published in patent publication US20090202660A1, “Agents and Methods for Osteogenic Oxysterols Inhibition of Oxidative Stress on Osteogenic Cellular Differentiation” (The Regents of the University of California, priority 2005, published 2009).

What was measured:
[1] = test system: M2-10B4 marrow stromal cells; assay: Matrix mineralization (45Ca incorporation assay, von Kossa staining); assay type: cell-based, mouse; details: for inhibition of oxysterol-induced mineralization: M2 cells pretreated with inhibitor, then 22R+20S oxysterols, 10 days; for mineralization: M2 cells in osteogenic medium, 10-14 days; for mineralization, synergy with oxysterols: marrow stromal cells, BMP with oxysterols
Description: (§1) Von Kossa and oil red O staining—Matrix mineralization in cell monolayers was detected by silver nitrate staining as previously described. Oil red O staining for detection of adipocytes was performed as previously described.
^45Ca incorporation assay—Matrix mineralization in cell monolayers was quantified using the ^45Ca incorporation assay as previously described.
After 14 days, mineralization was identified by a von Kossa staining, which appears black. FIG. 3C is a depiction of von Kossa staining of M2 cells exposed to various conditions. […]

[2] = test system: M2-10B4 marrow stromal cells; assay: Colorimetric alkaline phosphatase (ALP) activity assay on whole cell extracts; details: for inhibition of oxysterol-induced alkaline phosphatase activity: M2 cells pretreated with inhibitor, then 22R+20S oxysterols, 3 days; for Enzyme Activity (units/mg total cellular protein) ± SD: alkaline phosphatase, oxysterols 5 μM, 4 days, untreated 6 ± 3; for alkaline phosphatase activity (induction): M2 cells in osteogenic medium, oxysterols 0.5-10 μM, 3-4 days; for alkaline phosphatase activity, synergy with oxysterols: marrow stromal cells, BMP with oxysterols; for alkaline phosphatase activity: ligands used at 10 μM, control 18±2, ±SD
Description: Alkaline phosphatase activity assay: Colorimetric alkaline phosphatase (ALP) activity assay on whole cell extracts was performed as previously described.
Test 1: M2 cells at confluence were treated with control vehicle (C), or 10 µM oxysterols, in an osteogenic medium consisting of RPMI 1640 to which 10% fetal bovine serum (FBS), 50 µg/ml ascorbate and 3 mM beta-glycerophosphate (□GP) were added. After 3 days of incubation, alkaline phosphatase (ALP) activity was determined in cell homogenates by a colorimetric assay.
M2 cells at confluence were treated in osteogenic medium with control vehicle (C) or a combination of 22R and 20S oxysterols, at the indicated concentrations. ALP activity was measured after 3 days as described above.
Test 2: M2 cells were grown in RPMI medium containing 10% fetal bovine serum (FBS). At confluence, the cells were treated in RPMI containing 5% FBS plus ascorbate at 50 μg/ml and β-glycerophosphate at 3 mM to induce osteoblastic differentiation. Adipogenic differentiation was induced by treating the cells in growth medium plus 10˜M troglitazone. A vehicle (C) or oxysterol treatment was applied to cells in a variety of doses (in μM): 20S-Hydroxycholesterol, 25-Hydroxycholesterol, 22R-Hydroxycholesterol; 22S-Hydroxycholesterol; 7-ketocholesterol. Cells were always treated at 90% confluence. After 4 days, alkaline phosphatase activity was determined in whole cell lysates and normalized to protein. Alternatively, MSC cultures were prepared and treated with oxysterols as described above. Cells were treated at 90% confluence with the combination of 22R-Hydroxycholesterol and 20S-Hydroxycholesterol, each at 5 μM, for 4 to 96 hours. The oxysterols where removed and fresh media without oxysterols was added for a total duration of 96 hours. Alkaline phosphatase activity was measured in whole cell extracts and normalized to protein.
Cells were treated with the oxysterols (5 μM) for 4 days after which they were collected and analyzed by colorimetric assay for alkaline phosphatase activity. Results from a representative experiment are shown as the average of quadruplicate determination ±SD.

marrow stromal cells = assay: Markers of osteogenic differentiation in marrow stromal cells (ALP, osteocalcin mRNA, mineral formation); assay type: cell-based, mouse; details: for osteogenic property (markers of osteoblastic differentiation): alone or in combination with originally described oxysterols
Description: Next, a combination of 22R and 20S oxysterols (RS, 2.5 μM each) were added in the presence or absence of SC as indicated. After 3 days, ALP activity was measured as described earlier. […] (B) M2 cells were treated as described in (A) and after 10 days matrix mineralization in cultures was quantified by a ^45Ca incorporation assay as described earlier. […] (C) M2 cells were pretreated with 20 μM SC for 4 hours, followed by the addition of RS in the presence or absence of SC as described above. After 8 days, total RNA was isolated and analyzed for osteocalcin (Osc) and […] expression by Northern blotting as previously described. Data from densitometric analysis of the Northern blot is shown in (D) as the average of duplicate samples, normalized to 18S rRNA. (E) M2 cells at confluence were pretreated for 2 hours with control vehicle (C), or PLA2 inhibitors ACA (25 μM) and AACOCF3 (AAC, 20 μM), in osteogenic medium. Next, a combination of 22R and 20S oxysterols (RS, 2.5 μM) was added in the presence or absence of the inhibitors as indicated. After 3 days, ALP activity was measured as previously described. […] (F) M2 cells were treated as described in (E). After 10 days, matrix mineralization in cultures was quantified using a ^45Ca incorporation assay as previously described. Results from a representative of three experiments are shown, reported as the mean of quadruplicate determinations±SD, normalized to protein concentration (p<0.01 for RS vs. RS+ACA and RS+AAC).
The purpose of the study was to identify other osteogenic and anti-adipogenic oxysterols based on the chemical structure of previously identified oxysterols. We tested the ability of such candidate oxysterol molecules to induce the formation of osteoblastic cells in cultures of marrow stromal cells, which are progenitors of osteoblastic cells that make bone. In order to assess osteogenic differentiation of cells, one or more markers of osteogenic differentiation were measured in untreated cells and cells treated with the test oxysterols. These markers included: alkaline phosphatase activity, osteocalcin mRNA expression and mineral formation in cultures of marrow stromal cells. Activation of either one or more than one marker by a single or combination oxysterols is indicative of their osteogenic property.

osteocalcin mRNA = assay: Northern blotting for osteocalcin mRNA in M2 cells; assay type: cell-based, mouse; details: for osteocalcin gene expression: M2 cells in osteogenic medium, up to 14 days; for osteocalcin expression, synergy with osteogenic oxysterols: BMP 50 ng/ml with 22S+20S (SS, 2.5 μM), eight days
Description: RNA isolation and Northern blot analysis—Following treatment of cells under appropriate experimental conditions, total RNA was isolated using the RNA isolation kit from Stratagene (La Jolla, Calif., U.S.A.). Total RNA ([…]) was run on a 1% agarose/formaldehyde gel and transferred to Duralon-UV membranes (Strategene, Calif., U.S.A.) and cross-linked with UV light. The membranes were hybridized overnight at 60 degree C. with ^32P-labeled mouse osteocalcin cDNA probe, mouse lipoprotein lipase (LPL), mouse adipocyte protein 2 (aP2) PCR-generated probes, human 28S or 18S rRNA probes obtained from Geneka Biotechnology (Montreal, Quebec, Canada) and Maxim Biotech (San Francisco, Calif., U.S.A.), respectively. The PCR products were generated using primer sets synthesized by Invitrogen (Carlsbad, Calif., U.S.A.) with the following specifications: mouse aP2 gene (accession no. M13261); sense (75-95) 5′-[…]-3′, antisense (362-383) 5′-[…]-3′, generating a PCR product of 309 base pairs. Mouse LPL (accession no. XM—134193); sense (1038-1058) 5′-[…]-3′, antisense (1816-1836) 5′-[…]-3′, generating a PCR product of 799 base pairs. […] Following hybridization, the blots were washed twice at room temperature with 2×SSC+0.1% SDS, and then twice at 60 degree C. with 0.5×SSC+0.1% SDS, and exposed to X-ray film. The extent of gene induction was determined by densitometry.
After 4 and 8 days, total RNA from duplicate samples was isolated and analyzed for osteocalcin (Osc) and 28S rRNA expression by Northern blotting as described. FIG. 3E is a radiogram of Northern blotting for osteocalcin mRNA in M2 cells exposed to a control or combination of oxysterols for 4 or 8 days. FIG. 3F is a bar graph depicting the relative demsometric units of osteocalcin mRNA in M2 cells exposed to a control or combination of oxysterols for 4 or 8 days. Data from densitometric analysis of the Northern blot is shown in (F) as the average of duplicate samples, normalized to 28S rRNA.
RNA Isolation and Northern Blot Analysis—Total RNA was isolated using the RNA isolation kit from Stratagene (La Jolla, Calif., USA). Northern blotting and analysis of osteocalcin mRNA and 18S rRNA expression was performed as previously described (23).

M2 cells = assay: Troglitazone-induced adipogenesis, oil Red O staining and adipocyte count; assay type: cell-based, mouse; details: troglitazone 10 μM, oxysterols 10 μM, 8-10 days
Description: as §1
Test 1: M2 cells at 90% confluence were treated with vehicle (C), PPAR-γ activator, troglitazone 10 uM (Tro), alone or in combination with 10 μM oxysterols 20S-, 22R-, or 25S-hydroxycholesterol. After 8 days, adipocytes were identified by oil Red 0 staining and quantified by counting under a phase contrast microscope. FIG. 6A is a bar graph depicting the effect of oxysterols on reducing adipogenesis of MSC.
Test 2: (A) M2 cells at confluence were treated in RPMI containing 10% FBS with control vehicle or 10 μM troglitazone (Tro) in the absence or presence of 10 μM 20S or 22S oxysterols. After 10 days, adipocytes were visualized by oil Red O staining and quantified by light microscopy, shown in (B). […] (C) M2 cells were treated at confluence with 10 μM Tro, alone or in combination with 10 μM 20S oxysterol. After 10 days, total RNA was isolated and analyzed for lipoprotein lipase (LPL), adipocyte P2 gene (aP2) or 18S rRNA expression by Northern blotting as described (Ref). Data from densitometric analysis of the Northern blot is shown in (D) as the average of duplicate samples, normalized to 18S rRNA.

CCCCCc1ccc(/C=C/C(=O)Nc2ccccc2C(=O)O)cc1 [ACA, reference compound]
inhibition of oxysterol-induced mineralization [1]: inhibited | inhibition of oxysterol-induced alkaline phosphatase activity [2]: inhibited

CC(C)CCC[C@@H](C)[C@H]1CC[C@H]2[C@@H]3[C@H](O)C=C4C[C@@H](O)CC[C@]4(C)[C@H]3CC[C@]12C [7alpha-hydroxycholesterol, reference compound]
osteogenic property (markers of osteoblastic differentiation) (marrow stromal cells): did not appear to affect any measures of osteoblastic differentiation

C[C@H](CC[C@@H]1OC1(C)C)[C@H]1CC[C@H]2[C@@H]3CC=C4C[C@@H](O)CC[C@]4(C)[C@H]3CC[C@]12C [24S,25-epoxycholesterol]
osteogenic property (markers of osteoblastic differentiation) (marrow stromal cells): osteoinductive | Enzyme Activity (units/mg total cellular protein) ± SD [2]: 1,588 ± 19 units/mg total cellular protein

CCCCC/C=C\C/C=C\C/C=C\C/C=C\CCCC(=O)C(F)(F)F [AACOCF3, reference compound]
inhibition of oxysterol-induced mineralization [1]: inhibited | inhibition of oxysterol-induced alkaline phosphatase activity [2]: inhibited

C[C@@H](CO)CCC[C@@H](C)[C@H]1CC[C@H]2[C@@H]3CC=C4C[C@@H](O)CC[C@]4(C)[C@H]3CC[C@]12C [26-hydroxycholesterol]
osteogenic property (markers of osteoblastic differentiation) (marrow stromal cells): osteoinductive | Enzyme Activity (units/mg total cellular protein) ± SD [2]: 655 ± 93 units/mg total cellular protein

CC(C)CC[C@H](O)[C@@H](C)[C@H]1CC[C@H]2[C@@H]3CC=C4C[C@@H](O)CC[C@]4(C)[C@H]3CC[C@]12C [22S-hydroxycholesterol]
mineralization [1]: unable to induce | osteocalcin gene expression (osteocalcin mRNA): unable to induce | inhibition of adipogenesis (M2 cells): inhibited adipogenesis | alkaline phosphatase activity (induction) [2]: induced alkaline phosphatase activity

CC(C)C(O)CC[C@@H](C)[C@H]1CC[C@H]2[C@@H]3CC=C4C[C@@H](O)CC[C@]4(C)[C@H]3CC[C@]12C (stereo partly shown) [24-hydroxycholesterol]
osteogenic property (markers of osteoblastic differentiation) (marrow stromal cells): osteoinductive | Enzyme Activity (units/mg total cellular protein) ± SD [2]: 250 ± 20 units/mg total cellular protein

BMP14: bone morphogenic protein 14
mineralization, synergy with oxysterols [1]: synergistically induced | osteocalcin expression, synergy with osteogenic oxysterols (osteocalcin mRNA): synergistic induction | alkaline phosphatase activity, synergy with oxysterols [2]: synergistically induced

CS(=O)(=O)Nc1ccc([N+](=O)[O-])cc1OC1CCCCC1 [NS-398, reference compound]
highest non-toxic dose (marrow stromal cells; M2 cells): 20 µM | inhibition of the osteogenic effects of oxysterol combinations (marrow stromal cells; SC-560 at 1-20 μM, NS-398 at 20 μM): negligible inhibitory effects

O=S(=O)(c1ccccc1)N(CC(F)(F)F)c1ccc(C(O)(C(F)(F)F)C(F)(F)F)cc1 [TO, TO-901317, reference compound]
mineralization [1]: did not induce | osteocalcin gene expression (osteocalcin mRNA): did not induce | inhibition of alkaline phosphatase activity ([2]; M2 cells, TO at 1-10 μM): dose-dependent inhibition | alkaline phosphatase activity ([2]; M2 cells): 3±0.5 activity units/mg protein

CC(C)CCC[C@@H](C)[C@H]1CC[C@H]2[C@@H]3C(=O)C=C4C[C@@H](O)CC[C@]4(C)[C@H]3CC[C@]12C [7-ketocholesterol, reference compound]
inhibition of adipogenesis (M2 cells): unable to inhibit adipogenesis | alkaline phosphatase activity (induction) [2]: did not induce alkaline phosphatase activity

CC(C)CCC[C@@H](C)[C@H]1CC[C@H]2[C@@H]3CC=C4[C@@H](O)[C@@H](O)CC[C@]4(C)[C@H]3CC[C@]12C [4beta-hydroxycholesterol]
osteocalcin mRNA (osteocalcin mRNA; M2-10B4 cells treated for eight days, FIG. 20): moderate increase

CC(C)CC[C@@H](O)[C@@H](C)[C@H]1CC[C@H]2[C@@H]3CC=C4C[C@@H](O)CC[C@]4(C)[C@H]3CC[C@]12C [22R-hydroxycholesterol]
mineralization [1]: unable to induce | osteocalcin gene expression (osteocalcin mRNA): unable to induce | inhibition of adipogenesis (M2 cells): inhibited adipogenesis | alkaline phosphatase activity (induction) [2]: induced alkaline phosphatase activity | alkaline phosphatase activity ([2]; M2 cells): 45±5 activity units/mg protein

COc1cccc(-c2cc(=O)c3ccccc3o2)c1N [PD98059, reference compound]
inhibition of oxysterol-induced mineralization [1]: inhibited | inhibition of oxysterol-induced osteocalcin gene expression (osteocalcin mRNA; M2 cells pretreated with inhibitor, then 22R+20S oxysterols, 8 days): not

B1: BMP7: bone morphogenic protein 7 (protein, UniProt P18075 293-431, looked up)
Bone morphogenetic protein 7: STGSKQRSQNRSKTPKNQEALRMANVAENSSSDQRQACKKHELYVSFRDLGWQDWIIAPEGYAAYYCEGECAFPLNSYMNATNHAIVQTLVHFINPETVPKPCCAPTQLNAISVLYFDDSSNVILKKYRNMVVRACGCH
mineralization, synergy with oxysterols [1]: synergistically induced | osteocalcin expression, synergy with osteogenic oxysterols (osteocalcin mRNA): synergistic induction | alkaline phosphatase activity, synergy with oxysterols [2]: synergistically induced
